Measured values from ChEMBL document CHEMBL1146614, “High-affinity thrombin receptor (PAR-1) ligands: a new generation of indole-based peptide mimetic antagonists with a basic amine at the C-terminus” (Bioorg Med Chem Lett, 2003).

Columns and labels:
[1] = molecular target: T1, Proteinase-activated receptor 1 (Homo sapiens, UniProt P25116); assay: Ability to inhibit the binding of [3H]S-(p-F-Phe)-homoarginine-L-homoarginine-KY-NH2 to thrombin receptor on the membranes of CHRF-288-11 cells
T1 sequence (P25116 whole entry): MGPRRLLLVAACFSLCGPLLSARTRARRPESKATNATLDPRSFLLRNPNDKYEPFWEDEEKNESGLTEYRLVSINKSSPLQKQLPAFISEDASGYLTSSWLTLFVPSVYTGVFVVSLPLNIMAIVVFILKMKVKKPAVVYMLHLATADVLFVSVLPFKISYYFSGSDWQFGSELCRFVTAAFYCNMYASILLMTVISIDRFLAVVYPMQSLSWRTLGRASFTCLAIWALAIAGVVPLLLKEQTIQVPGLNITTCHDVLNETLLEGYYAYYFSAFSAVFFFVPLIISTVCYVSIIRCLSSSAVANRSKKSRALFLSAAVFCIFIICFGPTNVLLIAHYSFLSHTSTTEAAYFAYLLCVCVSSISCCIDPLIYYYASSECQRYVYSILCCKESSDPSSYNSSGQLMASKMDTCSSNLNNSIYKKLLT

[2] = Ability to block U-46,619 (0.3 uM)-induced platelet aggregation; inactive at a concentration of 50 uM; assay type: functional
[3] = Ability to block thrombin (0.15 nM)-induced platelet aggregation; assay type: functional
[4] = Ability to block TRAP-6 (2 uM)-induced platelet aggregation; assay type: functional
[5] = Ability to block collagen (3 ug/mL)-induced platelet aggregation; assay type: functional
[6] = Ability to block U-46,619 (0.3 uM)-induced platelet aggregation; assay type: functional

| Structure (SMILES) | IC50 [1] [nM] | IC50 [2] | IC50 [3] [nM] | IC50 [4] [nM] | IC50 [5] [nM] | IC50 [6] [nM] |
| --- | --- | --- | --- | --- | --- | --- |
| NCC[C@H](NC(=O)[C@H](Cc1ccc(F)c(F)c1)NC(=O)Nc1ccc2c(CN3CCCC3)cn(Cc3c(Cl)cccc3Cl)c2c1)C(=O)NCc1ccccn1 | 330 | – | 1100 | 190 | 8400 | 19800 |
| CSC[C@H](NC(=O)[C@H](Cc1ccc(F)c(F)c1)NC(=O)Nc1ccc2c(CN3CCCC3)cn(Cc3c(Cl)cccc3Cl)c2c1)C(=O)NCCN | 60 | – | 1300 | 60 | 27000 | 18600 |
| NCCCNC(=O)[C@H](Cc1cnc[nH]1)NC(=O)[C@H](Cc1ccc(Cl)cc1)NC(=O)Nc1ccc2c(CN3CCCC3)cn(Cc3c(Cl)cccc3Cl)c2c1 | 130 | – | 410 | 70 | 30000 | 18600 |
| NCC[C@H](NC(=O)[C@H](Cc1ccc(F)c(F)c1)NC(=O)Nc1cccc2c1c(CN1CCCC1)cn2Cc1c(Cl)cccc1Cl)C(=O)NCCN1CCCC1 | – | Not Active | 40000 | 16000 | – | – |
| NCC[C@H](NC(=O)[C@H](Cc1ccc(F)c(F)c1)NC(=O)Nc1ccc2c(CN3CCCC3)cn(Cc3c(Cl)cccc3Cl)c2c1)C(=O)NCCc1ccccn1 | 500 | – | 880 | 150 | 6600 | 10300 |
| COc1ccc(CNC(=O)[C@H](CCN)NC(=O)[C@H](Cc2ccc(F)c(F)c2)NC(=O)Nc2ccc3c(CN4CCCC4)cn(Cc4c(Cl)cccc4Cl)c3c2)cc1 | 480 | – | 700 | 100 | 6700 | 6400 |
| NCC[C@H](NC(=O)[C@H](Cc1ccc(F)c(F)c1)NC(=O)Nc1ccc2c(CN3CCCC3)cn(Cc3c(Cl)cccc3Cl)c2c1)C(=O)NCc1ccco1 | 160 | Not Active | 780 | 70 | 7900 | – |
| CCNCCNC(=O)[C@H](CCN)NC(=O)[C@H](Cc1ccc(F)c(F)c1)NC(=O)Nc1ccc2c(CN3CCCC3)cn(Cc3c(Cl)cccc3Cl)c2c1 | 90 | – | 410 | 130 | – | 13700 |
| NCC[C@H](NC(=O)[C@H](Cc1ccc(F)c(F)c1)NC(=O)Nc1ccc2c(CN3CCCC3)cn(Cc3c(Cl)cccc3Cl)c2c1)C(=O)NCc1cccs1 | 230 | Not Active | 800 | 160 | 7000 | – |
| NCC[C@H](NC(=O)[C@H](Cc1ccc(F)c(F)c1)NC(=O)Nc1cccc2c(CN3CCCC3)cn(Cc3c(Cl)cccc3Cl)c12)C(=O)NCCN1CCCC1 | 22000 | Not Active | 23000 | 4300 | – | – |
| NCC[C@H](NC(=O)[C@H](Cc1ccc(F)c(F)c1)NC(=O)Nc1ccc2c(CN3CCCC3)cn(Cc3c(Cl)cccc3Cl)c2c1)C(=O)NCCc1ccccc1 | 120 | – | 810 | 160 | 3000 | 7600 |
| NCC[C@H](NC(=O)[C@H](Cc1ccc(F)c(F)c1)NC(=O)Nc1ccc2c(CN3CCCC3)cn(Cc3c(Cl)cccc3Cl)c2c1)C(=O)NCCN1CCCC1 | – | Not Active | 460 | 50 | – | – |

Compounds with a lower IC50 [3], results first:

| IC50 [1] [nM] | IC50 [2] | IC50 [3] [nM] | IC50 [4] [nM] | IC50 [5] [nM] | IC50 [6] [nM] | Structure (SMILES) |
| --- | --- | --- | --- | --- | --- | --- |
| 440 | Not Active | 340 | 160 | – | – | NCC[C@H](NC(=O)[C@H](Cc1ccc(F)c(F)c1)NC(=O)Nc1ccc2c(CN3CCCC3)cn(Cc3c(Cl)cccc3Cl)c2c1)C(=O)NCc1ccccc1 |
| 35 | Not Active | 270 | 80 | 16500 | – | NCCNC(=O)[C@H](Cc1cccs1)NC(=O)[C@H](Cc1ccc(F)c(F)c1)NC(=O)Nc1ccc2c(CN3CCCC3)cn(Cc3c(Cl)cccc3Cl)c2c1 |
| 310 | – | 250 | 60 | 16000 | 22000 | NCCC[C@H](NC(=O)[C@H](Cc1ccc(F)c(F)c1)NC(=O)Nc1ccc2c(CN3CCCC3)cn(Cc3c(Cl)cccc3Cl)c2c1)C(=O)NCCN1CCCC1 |
| 25 | – | 220 | 70 | 4700 | 24000 | CSCC[C@H](NC(=O)[C@H](Cc1ccc(F)c(F)c1)NC(=O)Nc1ccc2c(CN3CCCC3)cn(Cc3c(Cl)cccc3Cl)c2c1)C(=O)NCCN |
| 430 | – | 200 | 50 | 11000 | 17300 | NCCCNC(=O)[C@H](CCN)NC(=O)[C@H](Cc1ccc(Cl)cc1)NC(=O)Nc1ccc2c(CN3CCCC3)cn(Cc3c(Cl)cccc3Cl)c2c1 |
| 70 | Not Active | 130 | 50 | – | – | NCCNC(=O)[C@H](Cc1ccncc1)NC(=O)[C@H](Cc1ccccc1F)NC(=O)Nc1ccc2c(CN3CCCC3)cn(Cc3c(Cl)cccc3Cl)c2c1 |
